Assay results: PMC11822664, “First‐In‐Human Dose Finding Study of Venadaparib (IDX‐1197), a Potent and Selective PARP Inhibitor, in Patients With Advanced Solid Tumors” (Cancer Medicine, 2025)

Assay: Plasma pharmacokinetics, noncompartmental analysis (Day 1 and Day 14)
Assay type: in vivo, human
Experimental: Pharmacokinetic and pharmacodynamic studies were performed during the first cycle of treatment. Plasma samples were analyzed for venadaparib concentration using liquid‐liquid extraction followed by high‐performance liquid chromatography, with detection by mass spectrometry. The plasma concentration–time data were analyzed using noncompartmental analysis (WinNonLin, version 8.0, SAS version 9.4 and R version 3.6.3) to derive pharmacokinetic parameters after the first dose (single‐dose parameters) and after the dose on Day 14 (multiple‐dose parameters). Pharmacodynamic studies were performed by evaluating Poly (ADP‐ribose) in peripheral blood mononuclear cells and quantifying tumor‐tissue lysates using the HT PARP in vivo Pharmacodynamic ELISA Kit II (R&D Systems, 4520‐096‐K).

[1] = day 1, Cohort 1: 2 mg once daily, 2 weeks on 1 week off, n=3, mean±SD
[2] = day 1, Cohort 2: 5 mg once daily, 2 weeks on 1 week off, n=3, mean±SD
[3] = day 1, Cohort 3: 10 mg once daily, 2 weeks on 1 week off, n=3, mean±SD
[4] = day 1, Cohort 4: 20 mg once daily, 2 weeks on 1 week off, n=3, mean±SD
[5] = day 1, Cohort 5: 20 mg once daily continuously, n=3, mean±SD
[6] = day 1, Cohort 6: 40 mg once daily continuously, n=3, mean±SD
[7] = day 1, Cohort 7: 80 mg once daily continuously, n=3, mean±SD
[8] = day 1, Cohort 8: 120 mg once daily continuously, n=3, mean±SD
[9] = day 1, Cohort 9: 160 mg once daily continuously, n=4, mean±SD
[10] = day 1, Cohort 10: 240 mg once daily continuously, n=3, mean±SD
[11] = day 14, Cohort 1: 2 mg once daily, 2 weeks on 1 week off, n=3, mean±SD
[12] = day 14, Cohort 2: 5 mg once daily, 2 weeks on 1 week off, n=3, mean±SD

For `O=C(c1cc(Cc2n[nH]c(=O)c3ccccc23)ccc1F)N1CC(CNC2CC2)C1` [venadaparib, Venadaparib], the “average increase in drug exposure” value (after 14 days of daily administration) was 99%, the “Time to steady state” value (after initiation of daily dosing) was “approximately 2 weeks” and the AUCinf [1] was 780.62±401.58 (51.4%) [318.42-043.92] h*ug/L. For the same compound, the AUClast [1] was 593.00±274.64 (46.3%) [291.48-828.86] h*ug/L, the Cmax [1] was 84.50±54.00 (63.9%) [33.40-141.00] ng/mL and the T1/2β [1] was 11.64±4.54 (39.0%) [6.72-15.66] h. For the same compound, the Vz [1] was 47.20±13.15 (27.8%) [34.62-60.85] L, the Tmax (day 1, Cohort 1: 2 mg once daily, 2 weeks on 1 week off, n=3, median (min-max)) was 1.92 (1.03-1.97) h and the AUCinf [2] was 1827.86±1666.87 (84.7%) [33.40-141.00] h*ug/L. The AUClast [2] was 1340.46±1006.85 (84.7%) [33.40-141.00] h*ug/L, the Cmax [2] was 180.00±48.57 (27.0%) [133.00-230.00] ng/mL and the T1/2β [2] was 10.52±3.54 (33.7%) [6.97-14.06] h. The Vz [2] was 57.08±26.96 (84.7%) [33.40-141.00] L, the Tmax (day 1, Cohort 2: 5 mg once daily, 2 weeks on 1 week off, n=3, median (min-max)) was 3.00 (0.55-4.00) h and the AUCinf [3] was 3649.06±4836.80 (132.5%) [144.88-9167.47] h*ug/L. For the same compound, the AUClast [3] was 2519.97±3026.42 (120.1%) [127.22-5922.09] h*ug/L, the Cmax [3] was 204.17±173.02 (84.7%) [33.40-141.00] ng/mL and the T1/2β [3] was 9.94±3.14 (31.6%) [7.23-13.39] h. The Vz [3] was 333.81±505.10 (151.3%) [21.07-916.53] L, the Tmax (day 1, Cohort 3: 10 mg once daily, 2 weeks on 1 week off, n=3, median (min-max)) was 3.00 (2.00-8.02) h and the AUCinf [4] was 3039.02±674.82 (22.2%) [2368.04-3717.62] h*ug/L. The AUClast [4] was 2754.42±727.50 (26.4%) [1991.23-3440.00] h*ug/L, the Cmax [4] was 380.00±146.81 (38.6%) [228.00-521.00] ng/mL and the T1/2β [4] was 7.91±2.11 (26.7%) [6.25-10.28] h. For the same compound, the Vz [4] was 80.18±39.12 (48.8%) [55.73-125.29] L, the Tmax (day 1, Cohort 4: 20 mg once daily, 2 weeks on 1 week off, n=3, median (min-max)) was 3.00 (2.08-4.00) h and the AUCinf [5] was 12875.06±5816.24 (45.5%) [7832.01-19189.58] h*ug/L. The AUClast [5] was 10232.09±3651.74 (35.7%) [7292.97-14320.11] h*ug/L, the Cmax [5] was 1128.00±443.52 (39.3%) [862.00-1640.00] ng/mL and the T1/2β [5] was 9.98±3.76 (37.7%) [5.82-13.13] h. The Vz [5] was 23.05±4.34 (18.8%) [19.75-27.97] L, the Tmax (day 1, Cohort 5: 20 mg once daily continuously, n=3, median (min-max)) was 2.93 (0.50-3.00) h and the AUCinf [6] was 15825.90±13925.93 (88.0%) [7229.41-31893.03] h*ug/L. For the same compound, the AUClast [6] was 14369.29±12181.96 (84.8%) [6801.11-28421.88] h*ug/L, the Cmax [6] was 2043.33±1547.82 (75.7%) [1110.00-3830.00] ng/mL and the T1/2β [6] was 6.87±0.36 (5.3%) [6.64-7.29] h. The Vz [6] was 37.48±21.36 (57.0%) [13.19-53.37] L, the Tmax (day 1, Cohort 6: 40 mg once daily continuously, n=3, median (min-max)) was 2.00 (2.00-3.00) h and the AUCinf [7] was 31699.75±12751.32 (40.2%) [17104.01-40676.73] h*ug/L. For the same compound, the AUClast [7] was 27733.70±10788.09 (38.9%) [15336.37-34987.13] h*ug/L, the Cmax [7] was 3643.33±582.27 (16.0%) [2980.00-4070.00] ng/mL and the T1/2β [7] was 8.29±0.47 (5.7%) [7.81-8.75] h. For the same compound, the Vz [7] was 35.61±20.31 (57.0%) [23.61-59.06] L, the Tmax (day 1, Cohort 7: 80 mg once daily continuously, n=3, median (min-max)) was 1.03 (1.00-3.00) h and the AUCinf [8] was 28572.20±24412.45 (85.4%) [12537.00-56667.70] h*ug/L. For the same compound, the AUClast [8] was 23020.92±16230.34 (70.5%) [12129.81-41674.88] h*ug/L, the Cmax [8] was 2923.33±1179.25 (40.3%) [2030.00-4260.00] ng/mL and the T1/2β [8] was 8.56±4.44 (51.9%) [4.97-13.53] h. The Vz [8] was 61.75±17.99 (29.1%) [41.34-75.31] L, the Tmax (day 1, Cohort 8: 120 mg once daily continuously, n=3, median (min-max)) was 2.00 (1.95-2.07) h and the AUCinf [9] was 48298.24±7488.56 (15.5%) [39493.27-55858.21] h*ug/L. The AUClast [9] was 42174.71±5663.76 (13.4%) [35508.61-48321.59] h*ug/L, the Cmax [9] was 5295.00±628.68 (11.9%) [4820.00-6220.00] ng/mL and the T1/2β [9] was 8.15±1.31 (16.1%) [6.18-8.88] h. For the same compound, the Vz [9] was 39.02±4.02 (10.3%) [36.11-44.88] L, the Tmax (day 1, Cohort 9: 160 mg once daily continuously, n=4, median (min-max)) was 2.00 (1.00-3.00) h and the AUCinf [10] was 37514.17±11745.33 (31.3%) [23968.05-44861.59] h*ug/L. For the same compound, the AUClast [10] was 35064.82±10936.96 (31.2%) [22440.89-41684.26] h*ug/L, the Cmax [10] was 4243.33±1097.38 (25.9%) [2980.00-4960.00] ng/mL and the T1/2β [10] was 5.86±0.27 (4.5%) [5.63-6.15] h. For the same compound, the Vz [10] was 58.25±20.01 (34.4%) [45.93-81.34] L, the Tmax (day 1, Cohort 10: 240 mg once daily continuously, n=3, median (min-max)) was 2.03 (1.95-3.87) h and the “AUCinf,ss” value [11] was 1736.03±1605.80 (92.5%) [457.71-3538.38] h*ug/L. The “AUClast,ss” value [11] was 1364.99±1236.83 (90.6%) [418.50-2764.45] h*ug/L, the “Cmax,ss” value [11] was 164.83±158.82 (96.4%) [55.40-347.00] ng/mL and the T1/2β [11] was 10.12±3.11 (30.8%) [6.53-12.16] h. The “Vd,ss” value [11] was 26.55±15.98 (60.2%) [9.51-41.19] L, the “Tmax,ss” value (day 14, Cohort 1: 2 mg once daily, 2 weeks on 1 week off, n=3, median (min-max)) was 1.95 (0.50-3.00) h and the “AUCinf,ss” value [12] was 3471.41±2661.23 (76.7%) [854.73-6175.06] h*ug/L. The “AUClast,ss” value [12] was 2104.75±1410.01 (67.0%) [709.76-3529.30] h*ug/L and the “Cmax,ss” value [12] was 274.27±162.91 (59.4%) [90.80-402.00] ng/mL.
